Laboratory results taken from PMC9925730, “Controlled sequential in situ self-assembly and disassembly of a fluorogenic cisplatin prodrug for cancer theranostics” (Nature Communications, 2023).
Values joined by “and” are separate entries in the source; they are usually repeats but may differ in a detail not shown here. Equal values may be shown once.

Columns and labels:
[1] = biological target: T1, ALP (Bos taurus, UniProt P19111); experiment: NIR FL, PA and absorption signals of P-CyPt in solution in response to ALP; type: biochemical; conditions: P-CyPt 10 μM; for normalized Abs. at 700 nm (Fig. 2j) / normalized Abs. at 750 nm (Fig. 2j) / normalized FL intensity at 710 nm (Fig. 2k) / normalized PA intensity at 700 nm (Fig. 2l) / normalized PA intensity at 750 nm (Fig. 2l): ALP 100 U/L 37 °C
T1 construct: Alkaline phosphatase from bovine; purchased Sigma-Aldrich; host or cells: bovine intestinal mucosa (tissue-derived)
Procedure: To monitor the NIR FL and PA imaging signals of P-CyPt in response to ALP, P-CyPt (10 μM) in Tris buffer (1 mL) was incubated with ALP (100 U/L) at 37 °C for 0, 5, 10, 15, 20, and 30 min. To monitor the NIR FL and PA imaging signals of Pt^IVNPs in response to GSH, P-CyPt (10 μM) in Tris buffer (1 mL) was first incubated with ALP (100 U/L) at 37 °C for 30 min and then incubated with 10 mM GSH at 37 °C for another 10, 20, 30, 40, 50, and 60 min. The NIR FL spectra of these solutions at each time point were acquired on a HORIBA Jobin Yvon Fluoromax-4 fluorescence spectrometer, with excitation at 680 nm. For PA imaging, the incubation solutions at each time point were loaded into a fine bore polythene tube ([…], 1.27 mm OD). The tubes were then sealed and immersed in water. The PA images at both 700 and 750 nm were acquired on the Vevo 2100 LAZR system (FUJIFILM VisualSonics).

[2] = biological target: T1, ALP; experiment: Sensitivity of P-CyPt towards ALP (detection limit); type: biochemical; conditions: for Normalized FL intensity at 710 nm (individual replicates) / Normalized FL intensity at 710 nm, mean: Supplementary Fig. 6b
[3] = tested on: s.c. HeLa tumors; experiment: NIR FL imaging of s.c. HeLa tumors in vivo; parameters: species or system mice; conditions: i.v. 100 μM, 200 μL
Procedure: (100 μM, in 200 μL saline). Whole body FL images of mice prior to (pre) and at 1 h, 2 h, 4 h, 8 h post injection of P-CyPt or […] acquired on the IVIS Lumina XR III imaging system, using a 660 nm excitation filter and a 750 ± 50 nm emission filter. Each experiment was conducted in three mice. The FL intensities were quantified by the region of interest (ROI) measurement using Living Image Software (4.5.2, PerkinElmer, MA, U.S.A). […] (500 μM, in 200 μL saline). The PA images of the s.c. HeLa tumors in mice prior to (pre), and at 1, 2, 4 h post injection were captured on the Vevo 2100 LAZR system (FUJIFILM VisualSonics), with excitation at 700 and 750 nm. The PA intensities were quantified by the equipped software.

[4] = tested on: s.c. HeLa tumors; experiment: Fluorescence imaging of varying sizes of s.c. HeLa tumors; type: in vivo, mice; conditions: P-CyPt 100 μM, 200 μL i.v., 4 h
Procedure: page 21: Supplementary Figure 29. Fluorescence imaging of varying sizes of s.c. HeLa tumors in mice. (a) Representative fluorescence images of mice with s.c. HeLa tumors at a mean size of 3.8 ± 0.8, 22.1 ± 1.6, 46.4 ± 4.2, 75.9 ± 4.5 and 125.5 ± 12.7 mm3, respectively. […]) was i.v. injected into mice, and the whole-body fluorescence images were acquired at 0 and 4 h. Red arrows indicate the locations of tumors, and the black circle indicates the position chosen for the background in each mouse. (b) Calculated SBR in mice of different tumor sizes. […] Data denote mean ± s.d. (n = 3 independent animals). […] 21 (1 picture or pasted object on this page, not shown here)

[5] = CMC of CyPt and stability of PtIVNPs under different pH conditions; type: physicochemical; conditions: for FL intensity at 710 nm: Supplementary Fig. 8 a
Procedure: Co n cen t rati o n (μM) Time (h) Time (h)
Supplementary Figure 8. Evaluation of the CMC and stability of PtIVNPs under different pH conditions. (a) Plots of the fluorescence intensity (λem = 710 nm) versus the concentration of CyPt in Tris buffer determine the CMC of CyPt, which was found to be ~0.3 μM according to the intersection of the two linear fit lines. (b, c) Monitoring of the hydrodynamic size of Pt IVNPs upon incubation under (b) pH = 5.0, and (c) pH = 7.4 (10 μM) for 0-24 h. Date denote mean ± s.d. (n = 3 independent experiments).
(also on this page, place not known: Na 3VO4 ( λem 850 800 Normalized FL intensity Tris Trypsin Caspase-3 Normalized FL intensity 200Diameter (nm) 10 Diameter (nm) 7.4(b) CMC=0.3 00 . . 51.0 Concentration FL intensity (1 X 105) 0 2 1.5 2.0 3.0 (c)(a))

T1 sequence (P19111 20-506 limits assumed): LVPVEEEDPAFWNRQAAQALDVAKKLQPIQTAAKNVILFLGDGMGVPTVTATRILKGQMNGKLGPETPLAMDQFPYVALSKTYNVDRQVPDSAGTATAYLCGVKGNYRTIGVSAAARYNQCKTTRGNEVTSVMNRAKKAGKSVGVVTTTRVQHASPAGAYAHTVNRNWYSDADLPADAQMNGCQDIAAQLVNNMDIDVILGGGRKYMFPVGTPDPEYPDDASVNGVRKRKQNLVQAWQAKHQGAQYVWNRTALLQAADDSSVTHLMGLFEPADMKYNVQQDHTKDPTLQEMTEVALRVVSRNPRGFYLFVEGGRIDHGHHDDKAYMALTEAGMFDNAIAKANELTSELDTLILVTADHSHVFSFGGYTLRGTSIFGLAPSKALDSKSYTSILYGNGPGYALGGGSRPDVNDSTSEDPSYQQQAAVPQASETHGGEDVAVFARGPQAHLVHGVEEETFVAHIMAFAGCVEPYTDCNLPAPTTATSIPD

CC1(C)C(/C=C/C2=C3Oc4cc(OP(=O)(O)O)c(Cl)cc4C=C3CCC2)=[N+](CCCNC(=O)[C@@H](Cc2ccccc2)NC(=O)[C@@H](Cc2ccccc2)NC(=O)CCC(=O)[O][Pt]([NH2])([NH2])([OH])([Cl])[Cl])c2ccccc21 [P-CyPt]
normalized Abs. at 700 nm (Fig. 2j) ([1]; 0 min): 0.03754 | normalized Abs. at 750 nm (Fig. 2j) ([1]; 0 min): 0.01756 | normalized FL intensity at 710 nm (Fig. 2k) ([1]; 0 min): 0.979 | normalized PA intensity at 700 nm (Fig. 2l) ([1]; 0 min): 0.1461 | normalized PA intensity at 750 nm (Fig. 2l) ([1]; 0 min): 0.1527 | normalized Abs. at 700 nm (Fig. 2j) ([1]; 5 min): 0.6947 | normalized Abs. at 750 nm (Fig. 2j) ([1]; 5 min): 0.2821 | normalized FL intensity at 710 nm (Fig. 2k) ([1]; 5 min): 5.873 | normalized PA intensity at 700 nm (Fig. 2l) ([1]; 5 min): 0.4821 | normalized PA intensity at 750 nm (Fig. 2l) ([1]; 5 min): 0.3333 | normalized Abs. at 700 nm (Fig. 2j) ([1]; 10 min): 0.8107 | normalized Abs. at 750 nm (Fig. 2j) ([1]; 10 min): 0.4361 | normalized FL intensity at 710 nm (Fig. 2k) ([1]; 10 min): 6.541 | normalized PA intensity at 700 nm (Fig. 2l) ([1]; 10 min): 0.5922 | normalized PA intensity at 750 nm (Fig. 2l) ([1]; 10 min): 0.5187 | normalized Abs. at 700 nm (Fig. 2j) ([1]; 15 min): 0.8996 | normalized Abs. at 750 nm (Fig. 2j) ([1]; 15 min): 0.6102 | normalized FL intensity at 710 nm (Fig. 2k) ([1]; 15 min): 6.902 | normalized PA intensity at 700 nm (Fig. 2l) ([1]; 15 min): 0.7009 | normalized PA intensity at 750 nm (Fig. 2l) ([1]; 15 min): 0.788 | normalized Abs. at 700 nm (Fig. 2j) ([1]; 20 min): 0.9422 | normalized Abs. at 750 nm (Fig. 2j) ([1]; 20 min): 0.6514 | normalized FL intensity at 710 nm (Fig. 2k) ([1]; 20 min): 7.672 | normalized PA intensity at 700 nm (Fig. 2l) ([1]; 20 min): 0.8542 | normalized PA intensity at 750 nm (Fig. 2l) ([1]; 20 min): 0.9373 | normalized Abs. at 700 nm (Fig. 2j) ([1]; 30 min): 0.996 | normalized Abs. at 750 nm (Fig. 2j) ([1]; 30 min): 0.688 | normalized FL intensity at 710 nm (Fig. 2k) ([1]; 30 min): 7.9669 | normalized PA intensity at 700 nm (Fig. 2l) ([1]; 30 min): 0.9524 | normalized PA intensity at 750 nm (Fig. 2l) ([1]; 30 min): 1.0015 | NIR FL at 710 nm switched on ([1]; ALP 100 U/L, after 30 min): ~ 8 fold | increase of PA signal at 700 nm ([1]; ALP 100 U/L, after 30 min): more than sixfold | increase of PA signal at 750 nm ([1]; ALP 100 U/L, after 30 min): more than sixfold | Normalized FL intensity at 710 nm (individual replicates) ([2]; ALP concentration 0 U/L): 0.8554 and 0.8726 and 0.8742 | Normalized FL intensity at 710 nm, mean ([2]; ALP concentration 0 U/L): 0.867 | Normalized FL intensity at 710 nm (individual replicates) ([2]; ALP concentration 0.5 U/L): 0.9653 and 1.0053 and 1.0982 | Normalized FL intensity at 710 nm, mean ([2]; ALP concentration 0.5 U/L): 1.023 | Normalized FL intensity at 710 nm (individual replicates) ([2]; ALP concentration 1 U/L): 1.1743 and 1.1873 and 1.137 | Normalized FL intensity at 710 nm, mean ([2]; ALP concentration 1 U/L): 1.166 | Normalized FL intensity at 710 nm (individual replicates) ([2]; ALP concentration 2 U/L): 1.4406 and 1.5171 and 1.5718 | Normalized FL intensity at 710 nm, mean ([2]; ALP concentration 2 U/L): 1.510 | Normalized FL intensity at 710 nm (individual replicates) ([2]; ALP concentration 5 U/L): 2.2381 and 2.3195 and 2.3579 | Normalized FL intensity at 710 nm, mean ([2]; ALP concentration 5 U/L): 2.305 | Normalized FL intensity at 710 nm (individual replicates) ([2]; ALP concentration 10 U/L): 3.458 and 3.6281 and 3.6545 | Normalized FL intensity at 710 nm, mean ([2]; ALP concentration 10 U/L): 3.580 | Normalized FL intensity at 710 nm (individual replicates) ([2]; ALP concentration 15 U/L): 4.5389 and 4.8786 and 4.9735 | Normalized FL intensity at 710 nm, mean ([2]; ALP concentration 15 U/L): 4.797 | Normalized FL intensity at 710 nm (individual replicates) ([2]; ALP concentration 20 U/L): 5.7617 and 5.8661 and 6.3529 | Normalized FL intensity at 710 nm, mean ([2]; ALP concentration 20 U/L): 5.994 | detection limit for ALP ([2]; P-CyPt 10 μM, 30 min, 3σ/k method): ~ 0.098 U/L | quantified FL intensity of HeLa tumors (Fig. 4c) ([3]; 1 h): 1130000000 | quantified FL intensity of HeLa tumors (Fig. 4c) ([3]; 2 h): 1040000000 | quantified FL intensity of HeLa tumors (Fig. 4c) ([3]; 4 h): 886000000 | size of s.c. HeLa tumors still detected by NIR FL imaging [4]: 3.8 ± 0.8 mm^3

CC1(C)C(/C=C/C2=C3Oc4cc(O)c(Cl)cc4C=C3CCC2)=[N+](CCCNC(=O)[C@@H](Cc2ccccc2)NC(=O)[C@@H](Cc2ccccc2)NC(=O)CCC(=O)[O][Pt]([NH2])([NH2])([OH])([Cl])[Cl])c2ccccc21 [CyPt]
FL intensity at 710 nm ([5]; concentration of CyPt 0.05 μM): 2780 | FL intensity at 710 nm ([5]; concentration of CyPt 0.1 μM): 5650 | FL intensity at 710 nm ([5]; concentration of CyPt 0.2 μM): 11030 | FL intensity at 710 nm ([5]; concentration of CyPt 0.3 μM): 17800 | FL intensity at 710 nm ([5]; concentration of CyPt 0.5 μM): 19720 | FL intensity at 710 nm ([5]; concentration of CyPt 1 μM): 24040 | FL intensity at 710 nm ([5]; concentration of CyPt 2 μM): 35120 | FL intensity at 710 nm ([5]; concentration of CyPt 3 μM): 46610 | critical micellar concentration (CMC) ([5]; Tris buffer, fluorescence at 710 nm): ≈ 0.3 μM
